Test results reported in patent publication US20160339022A1, “TREATMENT OF NEUROBLASTOMA WITH HISTONE DEACETYLASE INHIBITORS” (Acetylon Pharmaceuticals Inc., priority 2015, published 2016).

Key:
[1] = system: SK-N-BE(2) cells; assay: Cell viability (Promega CellTiter Glo assay); format: cell-based
Experimental: (§1) Cells were cultured for 48 hours at the indicated concentration of drug, and then cell viability was measured by Promega CellTiter Glo assay and caspase activity was measured by Promega Caspase3/7 Glo assay. […] Anti-tumor activity is evident at 3 μM of treatment.

[2] = system: neuroblastoma cells; assay: Cell cycle analysis (Click-iT EdU and FxCycle PI/RNase staining); format: cell-based; settings: 7 days
Experimental: Cells were cultured for 7 days with the indicated treatments and then stained with the Invitrogen Click-iT EdU kit and the Invitrogen FxCycle […] kits to assess frequency of cells in each stage of the cell cycle. […] The effect is enhanced by Compound B in a dose dependent manner.
In combination with ATRA, the effect on p21 is enhanced at concentrations that induce gene expression changes consistent with differentiation. At 7 days of treatment, combination effects are observed on the cell cycle, with a decreasing frequency of s-phase cells and an increasing sub-G1 population (FIG. 6B). […] EDU is increased in cells in s-phase while PI intensity indicates relative levels of DNA. Using these metrics, we illustrate the frequency of cells in the indicated states of the cell cycle.

[3] = system: SK-N-BE2 cells; assay: Levels of proteins related to cell-cycle progression; format: cell-based; settings: 3 days in culture
Experimental: The levels of proteins related to cell-cycle progression were assessed following treatment (SK-N-BE2 cells; 3 days in culture) with DMSO (control), Compound B alone, ATRA alone, and Compound B in combination with ATRA. p21 is increased by ATRA and enhanced by Compound B. Cyclin D1 is decreased in the combination setting relative to ATRA as a single agent. CDK2 and CDK4 are decreased in the combination setting with Compound B and ATRA.

[4] = system: neuroblastoma cells; settings: MTS assay, FIGS. 27 and 28
Experimental: Viable cells were measured in an MTS assay and the combination index (CI) was calculated using the Chou-Talaay method.

[5] = system: AKT and c-RAF; assay: Levels of AKT and c-RAF; format: cell-based; settings: SK-N-BE2 cells; 3 days in culture
Experimental: The levels of AKT and c-RAF were assessed following treatment (SK-N-BE2 cells; 3 days in culture) with DMSO (control), Compound B alone, ATRA alone, and Compound B in combination with ATRA. Activated AKT is increased by ATRA and reduced in the combination setting with Compound B. Compound B as a single agent, and in combination with ATRA, decreases cRAF phosphorylation at residue Ser259.

[6] = system: neuroblastoma cells; assay: Morphology changes / dendrite outgrowth by inverted microscope; format: cell-based; settings: 3, 5 and 7 days
Experimental: Cells were cultured for 3, 5, and 7 days with the indicated treatments. Images were captured on an inverted microscope.

[7] = system: SK-N-BE(2) cells; assay: Microarray gene expression and gene set enrichment analysis; format: cell-based, Homo sapiens; settings: 3 μM Compound B, 1 μM ATRA or combination, microarray 48 hr, fold relative to the DMSO control group
Experimental: Gene expression from cells treated with ATRA single agent and combination of ATRA and HDAC1/2i were assessed at 2 hrs and 48 hrs of treatment (FIG. 12A). […] A function analysis of the data using the Ingenuity IPA platform was performed by Qiagen; overlap is observed in the top hits between treatment groups.
Genes that statistically increase over 2-fold relative to the DMSO control were mapped on a Venn diagram (FIG. 12B).
Neuroblastoma cell line SK-N-BE(2) cells were treated with 3 μM Compound B, 1 μM ATRA, or a combination of both at 37° C. over 2 hours (FIG. 12A) or 48 hours (FIG. 12B) and compared to the solvent (DMSO) control.

[8] = system: retinoic acid receptor (RAR); assay: Retinoic acid receptor ChIP-seq; format: cell-based; settings: 3 μM Compound B, 48 hours
Excerpt: Retinoic acid receptor active binding sites defined in any individual treatment group by ChIP-seq at 48 hrs after treatment were stacked (y-axis) and aligned to the center of the binding peak (x-axis) (FIG. 13). […] Many of the genes found near region 1 binding sites are involved in regulation of retinoid signaling and are transcription factors that drive differentiation (Table 10).
Regions 1-7 of FIG. 13 are defined relative to DMSO: 1, [Combo] Increased; 2, [ATRA] Increased; 3, [ATRA] [Combo] Increased; 4, [Combo] [ATRA] [Compound B] Increased; 5, [Combo] [ATRA] Decreased; 6, [Compound B] Decreased; and 7, [Compound B] [Combo] [ATRA] Decreased.
Neuroblastoma cell line SK-N-BE(2) cells were treated with 3 μM Compound B, 1 μM ATRA, or a combination of both at 37° C. over 48 hours and compared to the solvent (DMSO) control. Antibodies to pan-retinoic acid receptor were used to pull down DNA associated with the receptor binding and sequenced. Lists of binding regions were mapped to the chromosome and “associated” with a given gene if the binding region was located within 10,000 bp up- or down-stream of the gene in question. Binding regions were represented as a heatmap where the sites were stacked on the y-axis across treatments, the “0” mark on the x-axis is the center of the binding peak and the intensity of signal indicated by color. The bracketed regions are areas of statistical significance relative to the DMSO control as indicated on the plot.
Table 12 lists the genes returned when the following conditions are met: 1) combo peak height >4 fold relative to the DMSO control group, and 2) combo expression >4 fold relative to the DMSO control group.

[9] = system: SK-N-BE(2) cells; assay: Caspase activity (Promega Caspase3/7 Glo assay); format: cell-based; settings: 1 μM, 48 hours
Experimental: as §1

[10] = system: neuroblastoma cells; assay: Neuroblastoma proliferation, manual cell counts over 7 days; format: cell-based; settings: 0.75 μM and 2 μM, counted at days 3, 5 and 7
Experimental: Cells were cultured over a 7 day period and manually counted at days 3, 5, and 7.

[11] = target: HDAC2 (Homo sapiens, UniProt Q92769); assay: Biochemical activity of isoform-selective HDAC inhibitors, HDAC2; settings: biochemical assay
[12] = target: HDAC1 (Homo sapiens, UniProt Q13547); assay: Biochemical activity of isoform-selective HDAC inhibitors, HDAC1; settings: biochemical assay
[13] = system: neuroblastoma cells; assay: Long term growth assay (15, 20, 25 days, Crystal Violet); format: cell-based; settings: 1 μM of exposure, single agent; FIG. 11
Experimental: Cells were cultured for 15, 20 or 25 days with the indicated treatments. Cells were imaged on an inverted microscope at days 15 and 20. On day 25, the cells were stained with Crystal Violet dye and imaged by cell phone camera Importantly, the combination of ATRA and Compound B suppressed the growth of ATRA-resistant colonies.
Cells were cultured for 15, 20 or 25 days with the indicated treatments. Cells were imaged on an inverted microscope at days 15 and 20. On day 25, the cells were stained with Crystal Violet dye and imaged.
Cells were cultured for 15, 20 or 25 days with the indicated treatments. Cells were imaged on an inverted microscope at days 15 and 20. On day 25, the cells were stained with Crystal Violet dye and imaged. It was observed that the combination activity is mediated by HDAC1/2i.
Neuroblastoma cells were treated with Compound B or the HDAC3-selective inhibitor Compound C in a long term growth assay.

[14] = system: IMR-32 tumors; assay: IMR-32 neuroblastoma tumor growth in NUDE mice; format: in vivo; settings: IMR-32 tumors in NUDE mice, orally once daily, 5/2 on/off schedule
Experimental: IMR-32 tumors were implanted in NUDE mice and Compound E and retinoic acid was administered orally once daily at the indicated doses on a 5/2 on/off schedule.

[15] = SK-N-BE(2) cells, 1 μM ATRA or combination, fold relative to the DMSO control group

Chain of HDAC1 (Q13547 whole entry, canonical isoform): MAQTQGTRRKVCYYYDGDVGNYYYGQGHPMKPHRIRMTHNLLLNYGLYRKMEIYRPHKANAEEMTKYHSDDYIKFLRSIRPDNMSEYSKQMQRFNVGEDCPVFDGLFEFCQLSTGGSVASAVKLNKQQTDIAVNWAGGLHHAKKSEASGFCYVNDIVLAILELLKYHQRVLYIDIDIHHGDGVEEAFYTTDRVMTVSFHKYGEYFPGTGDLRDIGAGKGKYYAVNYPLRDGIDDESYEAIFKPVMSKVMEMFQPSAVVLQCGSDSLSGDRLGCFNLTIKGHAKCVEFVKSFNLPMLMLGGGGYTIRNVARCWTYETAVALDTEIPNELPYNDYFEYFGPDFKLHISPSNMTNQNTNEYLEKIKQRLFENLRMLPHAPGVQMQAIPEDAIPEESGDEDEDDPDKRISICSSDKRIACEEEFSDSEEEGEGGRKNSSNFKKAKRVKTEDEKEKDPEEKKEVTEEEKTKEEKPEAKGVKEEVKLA
Chain of HDAC2 (Q92769 whole entry, canonical isoform): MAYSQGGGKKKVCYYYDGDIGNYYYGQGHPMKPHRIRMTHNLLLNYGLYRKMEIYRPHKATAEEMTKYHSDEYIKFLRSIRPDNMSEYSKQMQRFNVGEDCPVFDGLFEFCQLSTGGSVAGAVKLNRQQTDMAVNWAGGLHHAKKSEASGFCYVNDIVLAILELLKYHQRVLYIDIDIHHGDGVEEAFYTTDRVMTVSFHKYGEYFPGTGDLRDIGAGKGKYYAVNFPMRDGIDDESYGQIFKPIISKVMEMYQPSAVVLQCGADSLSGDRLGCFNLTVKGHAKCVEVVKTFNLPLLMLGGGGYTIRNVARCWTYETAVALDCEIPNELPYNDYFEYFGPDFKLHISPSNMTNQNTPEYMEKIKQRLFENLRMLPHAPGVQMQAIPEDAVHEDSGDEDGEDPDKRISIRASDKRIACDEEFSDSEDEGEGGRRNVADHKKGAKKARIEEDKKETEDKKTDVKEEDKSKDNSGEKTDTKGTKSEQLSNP

## CC1=C(/C=C/C(C)=C/C=C/C(C)=C/C(=O)O)C(C)(C)CCC1 [ATRA, all-trans-retinoic acid, reference compound]
[1]; addition of 1 μM or 3 μM of ATRA to Compound B, FIG. 2A
  effect of added ATRA on HDAC1/2i mediated toxicity: little effect
[2]
  cell cycle stage frequency, single agent: reduces s-phase frequency and increases the sub-G1 population
[3]
  p21 level: increased
[4]
  cytotoxic effect on neuroblastoma cells as a single agent: has a cytotoxic effect
[5]
  activated AKT: increased
[6]
  morphology / dendrite outgrowth: caused the outgrowth of dendrites over time
[7]
  Gene Expression Change, ACSL3: 1.68
  Gene Expression Change, ATP7A: 4.30
  Gene Expression Change, CDKN1A: 1.25
  Gene Expression Change, CRABP2: 12.15
  Gene Expression Change, CTSH: 2.40
  Gene Expression Change, CYP26A1: 7.84
  Gene Expression Change, CYP26B1: 116.67
  Gene Expression Change, DHRS3: 24.14
  Gene Expression Change, DUSP6: 8.59
  Gene Expression Change, ETS1: 3.50
  Gene Expression Change, HSPA5: 1.48
  Gene Expression Change, IER3: 3.75
  Gene Expression Change, NFKBIZ: 2.85
  Gene Expression Change, PCDH18: 3.98
  Gene Expression Change, PTGER2: 2.48
  Gene Expression Change, RARB: 3.91
  Gene Expression Change, RET: 10.78
[8]; [15]
  RAR Binding (Peak Height), ACSL3: 1.00
  RAR Binding (Peak Height), ATP7A: 4.60
  RAR Binding (Peak Height), CDKN1A: 4.75
  RAR Binding (Peak Height), CRABP2: 3.15
  RAR Binding (Peak Height), CTSH: 5.42
  RAR Binding (Peak Height), CYP26A1: 7.00
  RAR Binding (Peak Height), CYP26B1: 11.50
  RAR Binding (Peak Height), DHRS3: 7.50
  RAR Binding (Peak Height), DUSP6: 4.00
  RAR Binding (Peak Height), ETS1: 3.99
  RAR Binding (Peak Height), HSPA5: 2.00
  RAR Binding (Peak Height), IER3: 6.83
  RAR Binding (Peak Height), NFKBIZ: 4.00
  RAR Binding (Peak Height), PCDH18: 3.50
  RAR Binding (Peak Height), PTGER2: 2.13
  RAR Binding (Peak Height), RARB: 2.20
  RAR Binding (Peak Height), RET: 8.86
[8]; SK-N-BE(2), 1 μM ATRA, vs DMSO
  RAR binding to chromatin: increased RAR binding

## O=C(CCCCCCNC(=O)c1cnc(N(c2ccccc2)c2ccccc2Cl)nc1)NO [Compound A, 2-((2-chlorophenyl)(phenyl)amino)-N-(7-(hydroxyamino)-7-oxoheptyl)pyrimidine-5-carboxamide]
[1]; 1 μM, 48 hours
  cell death: Minimal
[1]; 3 μM, 48 hours
  anti-tumor activity: evident
[9]
  caspase 3/7 induction: Minimal
[10]
  proliferation, single agent: can suppress proliferation similar to ATRA
[4]
  cytotoxic effect on neuroblastoma cells as a single agent: has a cytotoxic effect

## Nc1cc(F)ccc1NC(=O)c1cnc2c(C3CC3)c(N3CCNCC3)ccc2c1 [Compound C, N-(2-amino-4-fluorophenyl)-8-cyclopropyl-7-(piperazin-1-yl)quinoline-3-carboxamide]
[11]
  IC50: 619 nM
[12]
  IC50: 2000 nM
[13]
  neuroblastoma cell growth in long term growth assay: required higher concentrations to mediate a similar effect

## Nc1ccc(-c2cccs2)cc1NC(=O)c1ccc2nc(N3CCNCC3)ccc2c1 [Compound E]
[14]
  tumor growth: dose-dependent trend toward reduced tumor growth
